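Interpolation was linear, between the two tested concentrations surrounding the appropriate level; five concentrations were tested over 48 hours in 96-well plates. At the GI50, growth is halved.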 Calls of active or inactive are those of the source. Rule as the data show it: active = GI50 up to about 1.1 µM and inactive = higher.
Key:
Assay in all cases: DTP human tumour cell line panel, 48 h
SNB-19 = tested on: SNB-19
A549 = tested on: A549
SK-MEL-5 = tested on: SK-MEL-5
MOLT-4 = tested on: MOLT-4
OVCAR-4 = tested on: OVCAR-4
Hs-578T = tested on: Hs-578T
HCT-116 = tested on: HCT-116
IGROV-1 = tested on: IGROV-1
T47D = tested on: T47D
UACC-62 = tested on: UACC-62
UACC-257 = tested on: UACC-257
MCF7 = tested on: MCF7
KM12 = tested on: KM12
RPMI-8226 = tested on: RPMI-8226
EKVX = tested on: EKVX
RXF 393 = tested on: RXF 393
SK-OV-3 = tested on: SK-OV-3
BT-549 = tested on: BT-549
HL-60 = tested on: HL-60
NCI/ADR-RES = tested on: NCI/ADR-RES

| SMILES | GI50 (SNB-19) | GI50 (A549) | GI50 (SK-MEL-5) | GI50 (MOLT-4) | GI50 (OVCAR-4) | GI50 (Hs-578T) | GI50 (HCT-116) | GI50 (IGROV-1) | GI50 (T47D) | GI50 (UACC-62) | GI50 (UACC-257) | GI50 (MCF7) | GI50 (KM12) | GI50 (RPMI-8226) | GI50 (EKVX) | GI50 (RXF 393) | GI50 (SK-OV-3) | GI50 (BT-549) | GI50 (HL-60) | GI50 (NCI/ADR-RES) |
| --- | --- | --- | --- | --- | --- | --- | --- | --- | --- | --- | --- | --- | --- | --- | --- | --- | --- | --- | --- | --- |
| CC(C)Cc1cnc(CC(C)C)c(=O)[nH]1 | > 100 µM (inactive) | > 100 µM (inactive) | > 100 µM (inactive) | > 100 µM (inactive) | > 100 µM (inactive) | > 100 µM (inactive) | > 100 µM (inactive) | > 100 µM (inactive) | > 100 µM (inactive) | > 100 µM (inactive) | > 100 µM (inactive) | > 100 µM (inactive) | > 100 µM (inactive) | 0.705 µM (active) | > 100 µM (inactive) | > 100 µM (inactive) | > 100 µM (inactive) | > 100 µM (inactive) | – | – |
| Clc1ccc(NCNC2Nc3ccccc3N2)cc1Cl | > 100 µM (inactive) | 56.9 µM (inactive) | 17.1 µM (inactive) | 39.2 µM (inactive) | – | > 100 µM (inactive) | 36.7 µM (inactive) | – | 12.6 µM (inactive) | 2.26 µM (inactive) | > 100 µM (inactive) | 0.247 µM (active) | 11.9 µM (inactive) | 26.4 µM (inactive) | 63.7 µM (inactive) | 30.8 µM (inactive) | 48.8 µM (inactive) | – | 41.3 µM (inactive) | 83.4 µM (inactive) |
| COCOCC1CCCN1CN1CCC[C@H]1COCOC (some centres not stated) | > 100 µM (inactive) | > 100 µM (inactive) | > 100 µM (inactive) | 50.4 µM (inactive) | > 100 µM (inactive) | > 100 µM (inactive) | 26.9 µM (inactive) | > 100 µM (inactive) | > 100 µM (inactive) | 36.6 µM (inactive) | > 100 µM (inactive) | 53.1 µM (inactive) | > 100 µM (inactive) | 33.8 µM (inactive) | > 100 µM (inactive) | – | > 100 µM (inactive) | – | 17.6 µM (inactive) | > 100 µM (inactive) |
| CC1(C)C=[N+]([O-])C(C)(C)N1 | > 100 µM (inactive) | > 100 µM (inactive) | > 100 µM (inactive) | > 100 µM (inactive) | > 100 µM (inactive) | > 100 µM (inactive) | > 100 µM (inactive) | > 100 µM (inactive) | > 100 µM (inactive) | > 100 µM (inactive) | > 100 µM (inactive) | > 100 µM (inactive) | > 100 µM (inactive) | > 100 µM (inactive) | > 100 µM (inactive) | > 100 µM (inactive) | > 100 µM (inactive) | – | > 100 µM (inactive) | > 100 µM (inactive) |
| O=CC(O)C(O)C(O)COc1cc(CO)cc2c1C(=O)c1ccccc1C2=O (configuration not stated) | > 100 µM (inactive) | > 100 µM (inactive) | 79.4 µM (inactive) | > 100 µM (inactive) | > 94.2 µM (inactive) | – | > 100 µM (inactive) | > 100 µM (inactive) | – | > 95.1 µM (inactive) | > 100 µM (inactive) | – | > 100 µM (inactive) | > 100 µM (inactive) | > 100 µM (inactive) | > 100 µM (inactive) | > 100 µM (inactive) | – | > 100 µM (inactive) | – |
| COc1ccccc1-n1cnc2c1=NC(C)(C)NC=2C(N)=O | > 100 µM (inactive) | > 100 µM (inactive) | > 100 µM (inactive) | – | > 100 µM (inactive) | > 100 µM (inactive) | > 100 µM (inactive) | > 100 µM (inactive) | > 100 µM (inactive) | > 100 µM (inactive) | > 100 µM (inactive) | > 100 µM (inactive) | > 100 µM (inactive) | > 100 µM (inactive) | > 100 µM (inactive) | > 100 µM (inactive) | > 100 µM (inactive) | – | > 100 µM (inactive) | > 100 µM (inactive) |
| C[n+]1c2ccc(Cl)cc2nc2cc(-c3ccccc3)ccc21 | 5.12 µM (inactive) | 4.81 µM (inactive) | 6.68 µM (inactive) | 1.61 µM (inactive) | 18.5 µM (inactive) | 25.5 µM (inactive) | 16.7 µM (inactive) | 10 µM (inactive) | – | 18.4 µM (inactive) | 15.6 µM (inactive) | 1.32 µM (inactive) | 4.65 µM (inactive) | 1.93 µM (inactive) | 10.8 µM (inactive) | 26.1 µM (inactive) | – | 11.1 µM (inactive) | 3.06 µM (inactive) | 33.2 µM (inactive) |
| COc1ccccc1C1CC(=O)CC(c2ccccc2OC)C12C(=O)NC(=S)NC2=O (configuration not stated) | > 100 µM (inactive) | – | 50.2 µM (inactive) | 35.7 µM (inactive) | 99.8 µM (inactive) | – | 80.5 µM (inactive) | 68.9 µM (inactive) | 58.5 µM (inactive) | > 100 µM (inactive) | 88.3 µM (inactive) | 46.8 µM (inactive) | 62.8 µM (inactive) | 19.9 µM (inactive) | > 100 µM (inactive) | 59.4 µM (inactive) | – | > 100 µM (inactive) | 9.93 µM (inactive) | > 100 µM (inactive) |
| CC(=O)c1cccc(NC(=O)C(=O)NNc2nnc(S)n2N)c1 | 6.25 µM (inactive) | 3.75 µM (inactive) | 1.21 µM (inactive) | 3.6 µM (inactive) | 10.1 µM (inactive) | 2 µM (inactive) | 4 µM (inactive) | 8.61 µM (inactive) | 3.5 µM (inactive) | 1.89 µM (inactive) | 2.75 µM (inactive) | 4.27 µM (inactive) | 11.1 µM (inactive) | 13.6 µM (inactive) | 14.2 µM (inactive) | 10.4 µM (inactive) | 20.5 µM (inactive) | 2.34 µM (inactive) | 3.18 µM (inactive) | – |
| CC(=O)NC1C(CO)O[C@@H]2OC(C)(C)O[C@H]12 (some centres not stated) | > 100 µM (inactive) | > 100 µM (inactive) | – | > 100 µM (inactive) | > 100 µM (inactive) | > 100 µM (inactive) | > 100 µM (inactive) | > 100 µM (inactive) | – | > 100 µM (inactive) | > 100 µM (inactive) | > 100 µM (inactive) | > 100 µM (inactive) | > 100 µM (inactive) | > 100 µM (inactive) | – | – | > 100 µM (inactive) | > 100 µM (inactive) | > 100 µM (inactive) |
| C=C1C(=O)O[C@H]2C1C[C@H](O)/C(C)=C/CC[C@@]1(C)O[C@H]21 (some centres not stated) | 60.1 µM (inactive) | > 100 µM (inactive) | 10.7 µM (inactive) | 2.59 µM (inactive) | 14.1 µM (inactive) | 23.6 µM (inactive) | 14.8 µM (inactive) | 14.8 µM (inactive) | – | 10.9 µM (inactive) | 16.7 µM (inactive) | 13.2 µM (inactive) | 14.7 µM (inactive) | 5.2 µM (inactive) | 19 µM (inactive) | 15 µM (inactive) | 36.5 µM (inactive) | – | – | 14.6 µM (inactive) |
| CC(C)(C)OC/C=C(\Br)CO | > 100 µM (inactive) | > 100 µM (inactive) | – | > 100 µM (inactive) | > 100 µM (inactive) | – | > 100 µM (inactive) | – | > 100 µM (inactive) | > 100 µM (inactive) | > 100 µM (inactive) | > 100 µM (inactive) | 41.6 µM (inactive) | > 100 µM (inactive) | > 100 µM (inactive) | > 100 µM (inactive) | > 100 µM (inactive) | > 100 µM (inactive) | – | > 100 µM (inactive) |
| CCCCCC(/C=C/C1CCC(=O)C1)OCOCCOC (configuration not stated) | > 53.3 µM (inactive) | 59.7 µM (inactive) | 47.8 µM (inactive) | 15.8 µM (inactive) | 47.9 µM (inactive) | – | 27 µM (inactive) | 42.2 µM (inactive) | 52.1 µM (inactive) | 36.6 µM (inactive) | 26.9 µM (inactive) | 33.5 µM (inactive) | 45.9 µM (inactive) | 21.6 µM (inactive) | 54.1 µM (inactive) | 34 µM (inactive) | > 100 µM (inactive) | 27.9 µM (inactive) | 42.1 µM (inactive) | 30 µM (inactive) |
| C=C(Cl)C(=C)CCC(Cl)C(C)(C)Cl (configuration not stated) | > 100 µM (inactive) | > 100 µM (inactive) | > 100 µM (inactive) | > 100 µM (inactive) | > 100 µM (inactive) | > 100 µM (inactive) | > 100 µM (inactive) | > 100 µM (inactive) | – | > 100 µM (inactive) | > 100 µM (inactive) | > 100 µM (inactive) | > 100 µM (inactive) | > 100 µM (inactive) | > 100 µM (inactive) | > 100 µM (inactive) | > 100 µM (inactive) | > 100 µM (inactive) | > 100 µM (inactive) | > 100 µM (inactive) |
| Cc1ccccc1-c1nc2c(N)nc(N)nc2nc1N | 44.3 µM (inactive) | 3.22 µM (inactive) | > 100 µM (inactive) | 3.77 µM (inactive) | > 100 µM (inactive) | > 100 µM (inactive) | 1.67 µM (inactive) | 6.82 µM (inactive) | – | 4.91 µM (inactive) | 86.3 µM (inactive) | 30.2 µM (inactive) | 29.8 µM (inactive) | > 100 µM (inactive) | 38.1 µM (inactive) | – | > 100 µM (inactive) | > 100 µM (inactive) | > 100 µM (inactive) | 27 µM (inactive) |
| NC(=O)N/N=C1/c2ccccc2-n2nccc21 | > 100 µM (inactive) | 78.3 µM (inactive) | 82.8 µM (inactive) | 47.1 µM (inactive) | > 100 µM (inactive) | 85.5 µM (inactive) | 30.8 µM (inactive) | 39.9 µM (inactive) | 27.4 µM (inactive) | 48.6 µM (inactive) | > 100 µM (inactive) | 21.5 µM (inactive) | > 100 µM (inactive) | – | > 100 µM (inactive) | 25.9 µM (inactive) | > 100 µM (inactive) | – | 8.59 µM (inactive) | > 100 µM (inactive) |

Reference: ChEMBL document CHEMBL1201862, “PubChem BioAssay data set” (2004)
